Source: the supplement of paper PMC10331698
± gives the standard deviation of the averaged measurements.

Legend:
Test in all cases: level (log10 ratio to DMSO vehicle control); higher = higher biomarker level / cell amount than vehicle control
Conditions in all cases: in DMSO
[1] = compound: FC(F)(F)C(F)(F)CNCC(F)(F)C(F)(F)F [Bis(1H,1H-perfluoropropyl)amine]
Experimental: (§1)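 BioMAP Diversity Plus panel of 12 human primary cell co-culture systems (3C, 4H, LPS, SAg, BT, BF4T, BE3C, CASM3C, HDF3CGF, KF3CT, MyoF, Mphg). Compounds were added 1 h before stimulation and left for 24 h (MyoF 48 h; BT 72 h for soluble read-outs or 6 d for IgG). Biomarkers were read by ELISA, cytotoxicity by SRB, PBMC viability and proliferation by Alamar Blue. Each well value was divided by the mean of 8 DMSO control wells on the same plate and log10 transformed; duplicate blinded samples were tested at 4 concentrations.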

Nonafluoropentanamide = compound: NC(=O)C(F)(F)C(F)(F)C(F)(F)C(F)(F)F [Nonafluoropentanamide]
Experimental: as §1

[2] = compound: O=C(O)C(F)(F)C(F)(F)C(F)(F)C(F)(F)C(F)(F)C(F)(F)C(F)(F)C(F)(F)C(F)(F)C(F)F [11-H-Perfluoroundecanoic acid]
Experimental: as §1

[3] = compound: O=C(O)C=CC(F)(C(F)(F)F)C(F)(F)F [3-(Perfluoroisopropyl)-2-propenoic acid]
Experimental: as §1

[4] = compound: O=S(=O)(O)C(F)(F)C(F)(F)C(F)(F)C(F)(F)C(F)(F)C(F)(F)C(F)(F)C(F)(F)C(F)(F)C(F)(F)F [Sodium perfluorodecanesulfonate]
Experimental: as §1

Hexafluoroamylene glycol = compound: OCC(F)(F)C(F)(F)C(F)(F)CO [Hexafluoroamylene glycol]
Experimental: as §1

Test System	level (log10) ([1]; 6700 nM)	level (log10) ([1]; 20000 nM)	level (log10) ([1]; 60000 nM)	level (log10) (Nonafluoropentanamide; 6700 nM)	level (log10) (Nonafluoropentanamide; 20000 nM)	level (log10) (Nonafluoropentanamide; 60000 nM)	level (log10) ([2]; 6700 nM)	level (log10) ([2]; 20000 nM)	level (log10) ([3]; 6700 nM)	level (log10) ([3]; 20000 nM)	level (log10) ([3]; 60000 nM)	level (log10) ([4]; 1500 nM)	level (log10) ([4]; 4400 nM)	level (log10) ([4]; 13000 nM)	level (log10) ([4]; 40000 nM)	level (log10) (Hexafluoroamylene glycol; 6700 nM)	level (log10) (Hexafluoroamylene glycol; 20000 nM)	level (log10) (Hexafluoroamylene glycol; 60000 nM)
CASM3C:CXCL8/IL-8	-0.0065 ± 0.0092	-0.005 ± 0.014	0.003 ± 0.027	-0.003 ± 0.018	-0.0105 ± 0.012	0.0065 ± 0.018	-0.001 ± 0.0057	-0.011 ± 0.0014	0.008 ± 0.025	0.0025 ± 0.016	0.0225 ± 0.0021	0.025 ± 0.016	0.01 ± 0.037	0.03 ± 0.021	0.064 ± 0.034	0.028 ± 0.023	-0.0055 ± 0.021	0.0015 ± 0.021
3C:CXCL8/IL-8	-0.0005 ± 0.0092	0.0005 ± 0.052	0.0445 ± 0.093	-0.001 ± 0.016	-0.0145 ± 0.0092	0.0345 ± 0.04	0.012 ± 0.0014	0.011 ± 0.0071	-0.001 ± 0.038	-0.0275 ± 0.0092	0.028 ± 0.033	0.035 ± 0.035	0.021 ± 0.013	0.03 ± 0.017	0.0725 ± 0.013	-0.0275 ± 0.069	-0.022 ± 0.042	0.012 ± 0.028
KF3CT:uPA	0.001 ± 0.013	0.0085 ± 0.0092	0.012 ± 0.013	0.0205 ± 0.011	0.019 ± 0.0042	0.011 ± 0.013	-0.003	0.0055 ± 0.0092	0.0095 ± 0.0064	0.0045 ± 0.0078	0.004 ± 0.02	-0.0325 ± 0.016	0.0025 ± 0.018	-0.001 ± 0.037	0.0035 ± 0.0021	0.004 ± 0.0057	0.006 ± 0.011	-0.0065 ± 0.025
KF3CT:SRB	-0.007 ± 0.0057	-0.007 ± 0.0014	0.0095 ± 0.011	-0.001	-0.004 ± 0.0071	0.0085 ± 0.015	-0.01 ± 0.017	-0.012 ± 0.0014	-0.005	-0.009 ± 0.0014	0.002 ± 0.013	0.006 ± 0.011	0 ± 0.0042	-0.003 ± 0.0028	0.0095 ± 0.016	-0.0045 ± 0.00071	-0.005 ± 0.0057	0.0025 ± 0.0078
lMphg:CD62E/E-Selectin	0.0005 ± 0.0035	-0.0185 ± 0.0078	0.002 ± 0.02	-0.0115 ± 0.021	-0.009 ± 0.03	-0.011 ± 0.0028	-0.025 ± 0.023	-0.028 ± 0.034	-0.0045 ± 0.012	-0.002 ± 0.0099	0.0205 ± 0.0035	-0.011 ± 0.0014	-0.0265 ± 0.028	0.0135 ± 0.018	0.0205 ± 0.021	0.002 ± 0.0057	-0.0215 ± 0.0092	0.0055 ± 0.025
MyoF:Collagen IV	-0.014 ± 0.03	-0.0275 ± 0.015	-0.008 ± 0.03	-0.051 ± 0.12	-0.0655 ± 0.054	-0.0655 ± 0.064	0.141 ± 0.0028	0.293 ± 0.034	-0.01 ± 0.023	0.0025 ± 0.0078	0.0205 ± 0.022	0.014 ± 0.02	0.035 ± 0.0085	0.0215 ± 0.0035	0.0065 ± 0.033	-0.0165 ± 0.042	-0.0015 ± 0.026	-0.0035 ± 0.00071
HDF3CGF:MMP-1	0.001 ± 0.0028	-0.0145 ± 0.0092	0.0075 ± 0.0092	0.0065 ± 0.0092	0.011 ± 0.0085	0.0085 ± 0.012	-0.096 ± 0.034	-0.0815 ± 0.005	0.0005 ± 0.012	0.008 ± 0.011	0.0005 ± 0.0064	-0.0125 ± 0.0092	-0.0145 ± 0.0078	-0.007 ± 0.024	0.027 ± 0.024	0.004 ± 0.0071	-0.0015 ± 0.04	-0.022 ± 0.064
lMphg:M-CSF	-0.007 ± 0.011	-0.0145 ± 0.022	0.0165 ± 0.021	0.004 ± 0.0071	0.004 ± 0.017	0.018 ± 0.0014	-0.019 ± 0.0071	-0.007 ± 0.018	-0.0105 ± 0.0064	-0.021 ± 0.014	-0.015 ± 0.025	-0.0215 ± 0.0035	-0.0255 ± 0.03	-0.013 ± 0.021	0.0255 ± 0.028	-0.008 ± 0.0057	-0.009 ± 0.0071	0.006 ± 0.0014
